Test results: publication PMC11877502, “Cytotoxic Stilbenoids, Hetero- and Homodimers of Homoisoflavonoids from Prospero autumnale” (Journal of Natural Products, 2025)
Where two headings read alike, the source gives them in different places.

Key:
LoVo [1] = test: Annexin V/propidium iodide staining; assay type: cell-based, human; details: 48 h at IC50 concentration, flow cytometry
Experimental: (§1) Apoptosis, necrosis, and viability were analyzed by Annexin V-FITC and […] (PI) staining. For this purpose, cells were seeded at 5 × 10^5 cells per 60 mm dish and incubated overnight to allow attachment. […] Cells were then immediately analyzed on a Beckman Coulter DxFLEX flow cytometry system. Each analysis was performed in triplicate, and 25 × 10^3 events were counted for each tube. Evaluations were done with CytEXPERT software.

LoVo [2] = test: DNA content (cell cycle) analysis; assay type: cell-based, human; details: 48 h, DNA content by flow cytometry
Experimental: (§2) To investigate cell cycle progression, cells were seeded as 5 × 10^5 cells per 60 mm dish and incubated overnight for attachment. After incubating with the selected compounds for 48 h, cells were detached with Trypsin-EDTA, washed once with DPBS, and fixed with ice-cold 70% EtOH by storing tubes at 4 °C for an hour. Then, EtOH was discarded by centrifuging cells, and the pellet was suspended in 500 μL cell cycle kit reagent (Beckman Coulter #C03551). Tubes were incubated at room temperature under the dark for 30 min. The experiment was done on triplicate, and 5 × 10^4 cells per test were acquired at a medium flow rate with the Beckman Coulter DxFLEX flow cytometry system. Analyses were performed with ModFit LT version 4.0.

PC3 [3] = test: DNA content (cell cycle) analysis; assay type: cell-based, human; details: 48 h, DNA content by flow cytometry
Experimental: as §2

LoVo [4] = test: MTS cytotoxicity assay; assay type: cell-based; details: Homo sapiens, 48 h, triplicate, read-out: IC50 ± SEM LoVo
Experimental: (§3) Stock solutions of extracts and compounds were prepared by dissolving in DMSO (Sigma-Aldrich, no. D2650) at the concentrations of 100 mg/mL and 100 mM for extracts and compounds, respectively. […] Untreated cells were used as a control, while plain culture medium was used as a blank. Viability was determined with MTS Assay (Abcam #ab197010) according to the manufacturer’s instructions. Absorbance at 490 nm was measured with a spectrophotometer (Epoch, BioTek Instruments). Relative viability ratios were calculated with the equation given below, and IC50 values were determined in GraphPad Prism (version 8.0). [drawing 2]

HEPG2 [5] = test: MTS cytotoxicity assay; assay type: cell-based; details: Homo sapiens, 48 h, triplicate, read-out: IC50 ± SEM HEPG2
Experimental: as §3

PC3 [6] = test: MTS cytotoxicity assay; assay type: cell-based; details: Homo sapiens, PC-3, 48 h, triplicate
Experimental: as §3

HEP3B [7] = test: MTS cytotoxicity assay; assay type: cell-based; details: Homo sapiens, 48 h, triplicate
Experimental: as §3

MDA-MB-231 [8] = test: MTS cytotoxicity assay; assay type: cell-based; details: Homo sapiens, 48 h, triplicate
Experimental: as §3

DU145 [9] = test: MTS cytotoxicity assay; assay type: cell-based; details: Homo sapiens, DU-145, 48 h, triplicate
Experimental: as §3

MCF7 [10] = test: MTS cytotoxicity assay; assay type: cell-based; details: Homo sapiens, 48 h, triplicate
Experimental: as §3

HCT116 [11] = test: MTS cytotoxicity assay; assay type: cell-based; details: Homo sapiens, HCT-116, 48 h, triplicate
Experimental: as §3

[12] = tested on: human cancer cell lines (HCT116, LoVo, DU145, PC3, HEP3B, HEPG2, MCF7, MDA-MB-231); test: MTS cytotoxicity assay, panel statements; assay type: cell-based; details: 48 h, span over compounds and cell lines, read-out: IC50 toward one or more cancer cell lines
Experimental: as §3

PC3 [13] = test: Annexin V/propidium iodide staining; assay type: cell-based, human; details: 48 h at IC50 concentration, flow cytometry
Experimental: (§4) Apoptosis, necrosis, and viability were analyzed by Annexin V-FITC and […] (PI) staining. For this purpose, cells were seeded at 5 × 10^5 cells per 60 mm dish and incubated overnight to allow attachment. Then, cells were treated with the selected compounds (1, 2, 4, and 10) for 48 h at respective IC50 concentrations. For flow cytometric analysis, cells were detached with Trypsin-EDTA solution (Thermo Fisher Scientific #25200056), washed with Dulbecco’s phosphate buffered saline (DPBS, Thermo Fisher Scientific #14190094) solution, and suspended in 1 mL of ice-cold Annexin V Binding Buffer (BioLegend #422201). Cells were then stained with 1 μL of Annexin V-FITC (Biovision #1001) and 1 μL PI (Thermo Fisher Scientific # P1304MP, diluted to 250 μg/mL in DPBS) by incubating cells on ice for 15 min in the dark. Cells were then immediately analyzed on a Beckman Coulter DxFLEX flow cytometry system. Each analysis was performed in triplicate, and 25 × 10^3 events were counted for each tube. Evaluations were done with CytEXPERT software.

DU145 [14] = test: Annexin V/propidium iodide staining; assay type: cell-based, human; details: 48 h at IC50 concentration, flow cytometry
Experimental: as §4

[15] = tested on: L929 nontumor mouse fibroblast cell line; test: MTS cytotoxicity assay, nontumor cell line; assay type: cell-based; details: 48 h, triplicate
Experimental: as §3

MDA-MB-231 [16] = test: Annexin V/propidium iodide staining; assay type: cell-based, human; details: 48 h at IC50 concentration, flow cytometry
Experimental: as §1

MDA-MB-231 [17] = test: DNA content (cell cycle) analysis; assay type: cell-based, human; details: 48 h, DNA content by flow cytometry
Experimental: as §2

HEP3B [18] = test: DNA content (cell cycle) analysis; assay type: cell-based, human; details: 48 h, DNA content by flow cytometry
Experimental: as §2

HEP3B [19] = test: Annexin V/propidium iodide staining; assay type: cell-based, human; details: 48 h at IC50 concentration, flow cytometry
Experimental: as §4

HEPG2 [20] = test: DNA content (cell cycle) analysis; assay type: cell-based, human; details: 48 h, DNA content by flow cytometry
Experimental: as §2

MCF7 [21] = test: DNA content (cell cycle) analysis; assay type: cell-based, human; details: 48 h, DNA content by flow cytometry
Experimental: as §2

HCT116 [22] = test: DNA content (cell cycle) analysis; assay type: cell-based, human; details: 48 h, DNA content by flow cytometry
Experimental: as §2

HEPG2 [23] = test: Annexin V/propidium iodide staining; assay type: cell-based, human; details: 48 h at IC50 concentration, flow cytometry
Experimental: as §4

MCF7 [24] = test: Annexin V/propidium iodide staining; assay type: cell-based, human; details: 48 h at IC50 concentration, flow cytometry
Experimental: as §4

HCT116 [25] = test: Annexin V/propidium iodide staining; assay type: cell-based, human; details: 48 h at IC50 concentration, flow cytometry
Experimental: as §4

[26] = read-out: IC50 ± SEM MDA-MB-231

Structure (SMILES) | apoptosis/necrosis vs control, LoVo (LoVo [1]) | cell cycle effect, LoVo (LoVo [2]) | IC50 (LoVo [4]) [µM] | IC50 (HEPG2 [5]) [µM] | IC50 (PC3 [6]; read-out: IC50 ± SEM PC3) [µM] | IC50 (HEP3B [7]; read-out: IC50 ± SEM HEP3B) [µM] | IC50 (MDA-MB-231 [8]; [26]) [µM] | IC50 (DU145 [9]; read-out: IC50 ± SEM DU145) [µM] | IC50 (MCF7 [10]; read-out: IC50 ± SEM MCF7) [µM] | IC50 (HCT116 [11]; read-out: IC50 ± SEM HCT116) [µM] | IC50 [12] [µM] | IC50 ([15]; read-out: IC50 ± SEM L929) [µM] | other results
COc1cc(/C=C/c2ccc(O)cc2)cc(O)c1C [Compound 1, 3,4′-dihydroxy-4-methyl-5-methoxystilbene] | apoptosis along with necrosis | S phase arrest | 10.6 ± 0.5 | 37.6 ± 5.3 | 21.3 ± 2.1 | 59.8 ± 4.2 | 79.6 ± 5.6 | 29.7 ± 4.4 | 53.5 ± 9.1 | 54.6 ± 5.5 | 8.2 to 37.6 | 33.7 ± 3.9 | cell cycle effect, PC3 (PC3 [3]): S phase arrest; apoptosis/necrosis vs control, PC3 (PC3 [13]): promoting apoptosis and necrosis; apoptosis/necrosis vs control, DU145 (DU145 [14]): promoting apoptosis and necrosis
COc1cc(O)cc(/C=C/c2ccc(O)cc2)c1 [Compound 2, pinostilbene] | apoptosis along with necrosis | S phase arrest | 8.2 ± 0.4 | 51.8 ± 10 | 88.7 ± 10.9 | 93.5 ± 8.9 | 23.3 ± 1.4 | > 100 | 95.7 ± 15 | 71.3 ± 12.6 | 8.2 to 37.6 | 13.4 ± 1.7 | apoptosis/necrosis vs control, MDA-MB-231 (MDA-MB-231 [16]): more efficient in inducing apoptosis compared to 10; cell cycle effect, MDA-MB-231 (MDA-MB-231 [17]): S phase arrest
COc1cc(/C=C/c2cc(O)c(C)c(O)c2)ccc1O [Compound 3, scillabene A] |  |  | 83.4 ± 3.9 | > 100 | > 100 | 82.7 ± 3.9 | > 100 | > 100 | > 100 | > 100 |  | > 100 | 
O=C1/C(=C/c2ccc(O)cc2)COc2cc(O)cc(O)c21 [Compound 4, (E)-4′-O-demethyleucomin] |  |  | 40.4 ± 2.9 | > 100 | 88.1 ± 8.6 | 33.7 ± 3 | 77.5 ± 3.9 | > 100 | 95.3 ± 4.7 | 45.8 ± 8.4 | 8.2 to 37.6 | > 100 | cell cycle effect, HEP3B (HEP3B [18]): G2/M phase arrest; apoptosis/necrosis vs control, HEP3B (HEP3B [19]): significantly increased early apoptosis along with necrosis
COc1c(O)c(OC)c2c(c1O)OC[C@@H](Cc1ccc(O)cc1)C2=O [Compound 7, 3R-(4′-hydroxybenzyl)-6,8-dihydroxy-5,7-dimethoxy-4-chromanone] |  |  | > 100 | > 100 | > 100 | > 100 | > 100 | > 100 | > 100 | > 100 |  | > 100 | 
COc1ccc(C(c2c(O)cc3c(c2O)C(=O)/C(=C/c2ccc(O)cc2)CO3)c2coc3cc(O)cc(O)c3c2=O)cc1 (stereo not shown) [Compound 9, prosperin B] |  |  | > 100 | > 100 | > 100 | > 100 | > 100 | > 100 | > 100 | 75.8 ± 8 |  | > 100 | 
COc1ccc([C@H]2c3c(/C=C/c4ccc(O)cc4)cc(OC)c(C)c3O[C@@H]3Oc4cc(O)cc(O)c4C(=O)[C@@H]32)cc1 [Compound 10, prosperin C] | apoptosis along with necrosis | G0/G1 phase arrest | 16.7 ± 0.8 | 24 ± 2.2 | 36.7 ± 2.5 | 59.9 ± 6.9 | 25.5 ± 2.4 | 40.1 ± 2.8 | 25.2 ± 5.1 | 19.3 ± 3.1 | 8.2 to 37.6 | 29.7 ± 1.7 | apoptosis/necrosis vs control, MDA-MB-231 (MDA-MB-231 [16]): increased apoptosis and necrosis; cell cycle effect, HEPG2 (HEPG2 [20]): slight S phase decrease; cell cycle effect, MDA-MB-231 (MDA-MB-231 [17]): G0/G1 phase arrest; cell cycle effect, MCF7 (MCF7 [21]): G0/G1 phase arrest; cell cycle effect, HCT116 (HCT116 [22]): G0/G1 phase arrest; apoptosis/necrosis vs control, HEPG2 (HEPG2 [23]): higher late apoptosis and necrosis; apoptosis/necrosis vs control, MCF7 (MCF7 [24]): increased apoptosis and necrosis; apoptosis/necrosis vs control, HCT116 (HCT116 [25]): significant increase in apoptosis
COc1cccc2c1C(=O)c1c(O)c3c(c(O)c1C2=O)C[C@@](O)(C(=O)CO)C[C@@H]3O[C@H]1C[C@H](N)[C@H](O)[C@H](C)O1 [doxorubicin, reference compound] |  |  | 2.4 ± 0.2 |  | 0.9 ± 0.1 | 1.1 ± 0.1 | 2.3 ± 0.3 | 5.9 ± 0.4 | 2.3 ± 0.3 | 0.9 ± 0.1 |  | > 100 | IC50 (PC3 [6]; read-out: IC50 ± SEM PC3, extract/fraction): 0.88 ± 0.08 mg/L; IC50 (HEP3B [7]; read-out: IC50 ± SEM HEP3B, extract/fraction): 1.1 ± 0.07 mg/L; IC50 (MDA-MB-231 [8]; read-out: IC50 ± SEM MDA-MB-231, extract/fraction): 2.33 ± 0.33 mg/L; IC50 (DU145 [9]; read-out: IC50 ± SEM DU145, extract/fraction): 5.93 ± 0.38 mg/L; IC50 (MCF7 [10]; read-out: IC50 ± SEM MCF7, extract/fraction): 2.32 ± 0.28 mg/L; IC50 (HCT116 [11]; read-out: IC50 ± SEM HCT116, extract/fraction): 0.86 ± 0.14 mg/L; IC50 ([15]; read-out: IC50 ± SEM L929, extract/fraction): > 100 mg/L
